{"source": "patent US9062071B2", "about": "“Substituted piperidines as HDM2 inhibitors” (Merck Sharp & Dohme Corp, priority 2011, dated 2015)", "target": "HDM2 protein (Homo sapiens, UniProt Q00987)", "sequence (Q00987 whole entry)": "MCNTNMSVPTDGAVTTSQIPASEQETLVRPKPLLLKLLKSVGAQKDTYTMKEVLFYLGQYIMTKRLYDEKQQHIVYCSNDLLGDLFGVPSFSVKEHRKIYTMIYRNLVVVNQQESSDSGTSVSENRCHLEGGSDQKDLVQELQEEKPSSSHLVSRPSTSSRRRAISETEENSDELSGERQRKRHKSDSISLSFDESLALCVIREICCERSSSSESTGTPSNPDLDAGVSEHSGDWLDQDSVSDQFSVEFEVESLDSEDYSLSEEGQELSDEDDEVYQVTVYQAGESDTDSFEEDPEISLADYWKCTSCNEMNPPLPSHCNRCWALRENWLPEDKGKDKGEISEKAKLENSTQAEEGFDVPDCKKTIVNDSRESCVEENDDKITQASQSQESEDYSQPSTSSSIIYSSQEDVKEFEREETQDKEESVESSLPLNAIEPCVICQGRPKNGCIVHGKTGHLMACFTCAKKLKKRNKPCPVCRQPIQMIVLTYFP", "test": "fluorescence polarization screening assay (FP IC50)", "type": "binding", "details": "class symbols", "protocol": "The compounds were evaluated to determine activity at the HDM2 protein by known methods such as the fluorescence polarization screening assay that measures the inhibitory concentration that achieves 50% of maximal activity (FP IC50) and the dissociation constant for inhibitor binding (FP Ki). [Zhang et al., J. Analytical Biochemistry 331: 138-146 (2004)]."}
{"smiles": "CCC[C@H]1N(C(=O)c2ncccc2C(F)(F)F)CCC[C@@]1(Oc1csc(C(F)(F)F)c1)C(=O)N1CCc2cc(OC)ccc2C1", "note": "[Compound A47, 6-methoxy-2-{[(2R,3S)-2-propyl-1-{[3-(trifluoromethyl)pyridin-2-yl]carbonyl}-3-{[5-(trifluoromethyl)thiophen-3-yl]oxy}piperidin-3-yl]carbonyl}-1,2,3,4-tetrahydroisoquinoline]", "values": [{"measurement": "IC50", "value": "101 to 20000", "unit": "nM"}]}
{"smiles": "CCC[C@H]1N(C(=O)c2ncccc2C(F)(F)F)CCC[C@@]1(Oc1csc(C(F)(F)F)c1)C(=O)N1CCc2cc(F)ccc2C1", "note": "[Compound A48, 6-fluoro-2-{[(2R,3S)-2-propyl-1-{[3-(trifluoromethyl)pyridin-2-yl]carbonyl}-3-{[5-(trifluoromethyl)thiophen-3-yl]oxy}piperidin-3-yl]carbonyl}-1,2,3,4-tetrahydroisoquinoline]", "values": [{"measurement": "IC50", "value": "101 to 20000", "unit": "nM"}]}
{"smiles": "CCC[C@H]1N(C(=O)c2ncccc2C(F)(F)F)CCC[C@@]1(Oc1csc(C(F)(F)F)c1)C(=O)N1CCc2cc(Cl)ccc2C1", "note": "[Compound A49, 6-chloro-2-{[(2R,3S)-2-propyl-1-{[3-(trifluoromethyl)pyridin-2-yl]carbonyl}-3-{[5-(trifluoromethyl)thiophen-3-yl]oxy}piperidin-3-yl]carbonyl}-1,2,3,4-tetrahydroisoquinoline]", "values": [{"measurement": "IC50", "value": "1 to 100", "unit": "nM"}]}
{"smiles": "CCC[C@H]1N(C(=O)c2ncccc2C(F)(F)F)CCC[C@@]1(Oc1csc(C(F)(F)F)c1)C(=O)N1CCc2cc(Br)ccc2C1", "note": "[Compound A50, 6-bromo-2-{[(2R,3S)-2-propyl-1-{[3-(trifluoromethyl)pyridin-2-yl]carbonyl}-3-{[5-(trifluoromethyl)thiophen-3-yl]oxy}piperidin-3-yl]carbonyl}-1,2,3,4-tetrahydroisoquinoline]", "values": [{"measurement": "IC50", "value": "1 to 100", "unit": "nM"}]}
{"smiles": "CCC[C@H]1N(C(=O)c2ncccc2C(F)(F)F)CCC[C@@]1(Oc1csc(C(F)(F)F)c1)C(=O)N1CCc2cc(F)ccc2C1CCCO", "note": "(stereo partly drawn) [Compound A51, 3-(6-fluoro-2-{[(2R,3S)-2-propyl-1-{[3-(trifluoromethyl)pyridin-2-yl]carbonyl}-3-{[5-(trifluoromethyl)thiophen-3-yl]oxy}piperidin-3-yl]carbonyl}-1,2,3,4-tetrahydroisoquinolin-1-yl)propan-1-ol]", "values": [{"measurement": "IC50", "value": "1 to 100", "unit": "nM"}]}
{"smiles": "CCC[C@H]1N(C(=O)c2ncccc2C(F)(F)F)CCC[C@@]1(Oc1csc(C(F)(F)F)c1)C(=O)N1CCc2cc(F)ccc2C1CC(=O)O", "note": "(stereo partly drawn) [Compound A52, (6-fluoro-2-{[(2R,3S)-2-propyl-1-{[3-(trifluoromethyl)pyridin-2-yl]carbonyl}-3-{[5-(trifluoromethyl)thiophen-3-yl]oxy}piperidin-3-yl]carbonyl}-1,2,3,4-. tetrahydroisoquinolin-1-yl)acetic acid]", "values": [{"measurement": "IC50", "value": "1 to 100", "unit": "nM"}]}
{"smiles": "CCC[C@H]1N(C(=O)c2ncccc2C(F)(F)F)CCC[C@@]1(Oc1csc(C(F)(F)F)c1)C(=O)N1CCc2cc(Cl)ccc2C1CC(=O)O", "note": "(stereo partly drawn) [Compound A53, (6-chloro-2-{[(2R,3S)-2-propyl-1-{[3-(trifluoromethyl)pyridin-2-yl]carbonyl}-3-{[5-(trifluoromethyl)thiophen-3-yl]oxy}piperidin-3-yl]carbonyl}-1,2,3,4-. tetrahydroisoquinolin-1-yl)acetic acid]", "values": [{"measurement": "IC50", "value": "1 to 100", "unit": "nM"}]}
{"smiles": "CCC[C@H]1N(C(=O)c2ncccc2C(F)(F)F)CCC[C@@]1(Oc1csc(C(F)(F)F)c1)C(=O)N1CCc2cc(F)ccc2C1CCCO", "note": "(stereo partly drawn) [Compound A54, 3-(6-fludro-2-{[(2R,3S)-2-propyl-1-{[3-(trifluoromethyl)pyridin-2-yl]carbonyl}-3-{[5-(trifluoromethyl)thiophen-3-yl]oxy}piperidin-3-yl]carbonyl}-1,2,3,4-tetrahydroisoquinolin-1-yl)propan-1-ol]", "values": [{"measurement": "IC50", "value": "101 to 20000", "unit": "nM"}]}
{"smiles": "CCC[C@H]1N(C(=O)c2ncccc2C(F)(F)F)CCC[C@@]1(Oc1csc(C(F)(F)F)c1)C(=O)N1CCc2cc(Cl)ccc2C1CC(=O)O", "note": "(stereo partly drawn) [Compound A55, (6-chloro-2-{[(2R,3S)-2-propyl-1-{[3-(trifluoromethyl)pyridin-2-yl]carbonyl}-3-{[5-(trifluoromethyl)thiophen-3-yl]oxy}piperidin-3-yl]carbonyl}-1,2,3,4-. tetrahydroisoquinolin-1-yl)acetic acid]", "values": [{"measurement": "IC50", "value": "1 to 100", "unit": "nM"}]}
{"smiles": "CCC[C@H]1N(C(=O)c2ncccc2C(F)(F)F)CCC[C@@]1(Oc1csc(C(F)(F)F)c1)C(=O)N1CCc2cc(F)ccc2C1CC(=O)O", "note": "(stereo partly drawn) [Compound A56, (6-fluoro-2-{[(2R,3S)-2-propyl-1-{[3-(trifluoromethyl)pyridin-2-yl]carbonyl}-3-{[5-(trifluoromethyl)thiophen-3-yl]oxy}piperidin-3-yl]carbonyl}-1,2,3,4-. tetrahydroisoquinolin-1-yl)acetic acid]", "values": [{"measurement": "IC50", "value": "1 to 100", "unit": "nM"}]}
{"smiles": "CCC[C@H]1N(C(=O)c2ncccc2C(F)(F)F)CCC[C@@]1(Oc1csc(C(F)(F)F)c1)C(=O)N1CCc2cc(Br)ccc2C1CCC(=O)O", "note": "(stereo partly drawn) [Compound A57, 3-(6-bromo-2-{[(2R,3S)-2-propyl-1-{[3-(trifluoromethyl)pyridin-2-yl]carbonyl}-3-{[5-(trifluoromethyl)thiophen-3-yl]oxy}piperidin-3-yl]carbonyl}-1,2,3,4-tetrahydroisoquinolin-1-yl)propanoic acid]", "values": [{"measurement": "IC50", "value": "1 to 100", "unit": "nM"}]}
{"smiles": "CCC[C@H]1N(C(=O)c2ncccc2C(F)(F)F)CCC[C@@]1(Oc1csc(C(F)(F)F)c1)C(=O)N1CCc2cc(Br)ccc2C1CCC(=O)O", "note": "(stereo partly drawn) [Compound A58, 3-(6-bromo-2-{[(2R,3S)-2-propyl-1-{[3-(trifluoromethyl)pyridin-2-yl]carbonyl}-3-{[5-(trifluoromethyl)thiophen-3-yl]oxy}piperidin-3-yl]carbonyl}-1,2,3,4-tetrahydroisoquinolin-1-yl)propanoic acid]", "values": [{"measurement": "IC50", "value": "1 to 100", "unit": "nM"}]}
{"smiles": "CCC[C@H]1N(C(=O)c2ncccc2C(F)(F)F)CCC[C@@]1(Oc1csc(C(F)(F)F)c1)C(=O)N1CCc2cc(F)ccc2C1CCC(=O)NCc1nn[nH]n1", "note": "(stereo partly drawn) [Compound A59, 3-(6-fluoro-2-{[(2R,3S)-2-propyl-1-{[3-(trifluoromethyl)pyridin-2-yl]carbonyl}-3-{[5-(trifluoromethyl)thiophen-3-yl]oxy}piperidin-3-yl]carbonyl}-1,2,3,4-tetrahydroisoquinolin-1-yl)-N-(2H-tetrazol-5-ylmethyl)propanamide]", "values": [{"measurement": "IC50", "value": "1 to 100", "unit": "nM"}]}
{"smiles": "CCC[C@H]1N(C(=O)c2ncccc2C(F)(F)F)CCC[C@@]1(Oc1csc(C(F)(F)F)c1)C(=O)N1CCc2cc(F)ccc2C1CCC(=O)NCc1nn[nH]n1", "note": "(stereo partly drawn) [Compound A60, 3-(6-fluoro-2-{[(2R,3S)-2-propyl-1-{[3-(trifluoromethyl)pyridin-2-yl]carbonyl}-3-{[5-(trifluoromethyl)thiophen-3-yl]oxy}piperidin-3-yl]carbonyl}-1,2,3,4-tetrahydroisoquinolin-1-yl)-N-(2H-tetrazol-5-ylmethyl)propanamide]", "values": [{"measurement": "IC50", "value": "1 to 100", "unit": "nM"}]}
{"smiles": "CCC[C@H]1N(C(=O)c2ncccc2C(F)(F)F)CCC[C@@]1(Oc1csc(C(F)(F)F)c1)C(=O)N1CCc2cc(Cl)ccc2C1CCC(=O)NS(C)(=O)=O", "note": "(stereo partly drawn) [Compound A61, 3-(6-chloro-2-{[(2R,3S)-2-propyl-1-{[3-(trifluoromethyl)pyridin-2-yl]carbonyl}-3-{[5-(trifluoromethyl)thiophen-3-yl]oxy}piperidin-3-yl]carbonyl}-1,2,3,4-tetrahydroisoquinolin-1-yl)-N-(methylsulfonyl) propanamide]", "values": [{"measurement": "IC50", "value": "1 to 100", "unit": "nM"}]}
{"smiles": "CCC[C@H]1N(C(=O)c2ncccc2C(F)(F)F)CCC[C@@]1(Oc1csc(C(F)(F)F)c1)C(=O)N1CCc2cc(-c3ccccc3)ccc2C1", "note": "[Compound A62, 6-phenyl-2-{[(2R,3S)-2-propyl-1-{[3-(trifluoromethyl)pyridin-2-yl]carbonyl}-3-{[5-(trifluoromethyl)thiophen-3-yl]oxy}piperidin-3-yl]carbonyl}-1,2,3,4-tetrahydroisoquinoline]", "values": [{"measurement": "IC50", "value": "101 to 20000", "unit": "nM"}]}
{"smiles": "CCC[C@H]1N(C(=O)c2ncccc2C(F)(F)F)CCC[C@@]1(Oc1csc(C(F)(F)F)c1)C(=O)N1CCc2cc(Cl)ccc2C1CCC(=O)NS(C)(=O)=O", "note": "(stereo partly drawn) [Compound A63, 3-(6-chloro-2-{[(2R,3S)-2-propyl-1-{[3-(trifluoromethyl)pyridin-2-yl]carbonyl}-3-{[5-(trifluoromethyl)thiophen-3-yl]oxy}piperidin-3-yl]carbonyl}-1,2,3,4-tetrahydroisoquinolin-1-yl)-N-(methylsulfonyl) propanamide]", "values": [{"measurement": "IC50", "value": "1 to 100", "unit": "nM"}]}
{"smiles": "CCC[C@H]1N(C(=O)c2ncccc2C(F)(F)F)CCC[C@@]1(Oc1csc(C(F)(F)F)c1)C(=O)N1CCc2cc(Cl)ccc2C1CC(C)(C)C(=O)O", "note": "(stereo partly drawn) [Compound A64, 3-(6-chloro-2-{[(2R,3S)-2-propyl-1-{[3-(trifluoromethyl)pyridin-2-yl]carbonyl}-3-{[5-(trifluoromethyl)thiophen-3-yl]oxy}piperidin-3-yl]carbonyl}-1,2,3,4-tetrahydroisoquinolin-1-yl)-2,2-dimethylpropanoic acid]", "values": [{"measurement": "IC50", "value": "1 to 100", "unit": "nM"}]}
{"smiles": "CCC[C@H]1N(C(=O)c2ncccc2C(F)(F)F)CCC[C@@]1(Oc1csc(C(F)(F)F)c1)C(=O)N1CCc2cc(Cl)ccc2C1CC(C)(C)C(=O)O", "note": "(stereo partly drawn) [Compound A65, 3-(6-chloro-2-{[(2R,3S)-2-propyl-1-{[3-(trifluoromethyl)pyridin-2-yl]carbonyl}-3-{[5-(trifluoromethyl)thiophen-3-yl]oxy}piperidin-3-yl]carbonyl}-1,2,3,4-tetrahydroisoquinolin-1-yl)-2,2-dimethylpropanoic acid]", "values": [{"measurement": "IC50", "value": "1 to 100", "unit": "nM"}]}
{"smiles": "CCC[C@H]1N(C(=O)c2ncccc2C(F)(F)F)CCC[C@@]1(Oc1csc(C(F)(F)F)c1)C(=O)N1CCc2cc(-c3ccsc3)ccc2C1", "note": "[Compound A66, 2-{[(2R,3S)-2-propyl-1-{[3-(trifluoromethyl)pyridin-2-yl]carbonyl}-3-{[5-(trifluoromethyl)thiophen-3-yl]oxy}piperidin-3-yl]carbonyl}-6-thiophen-3-yl-1,2,3,4-tetrahydroisoquinoline]", "values": [{"measurement": "IC50", "value": "101 to 20000", "unit": "nM"}]}
